Test results taken from the NIST ThermoML archive (doi:10.1021/acs.jced.8b00153).
Values joined by “and” are separate entries in the source; they are usually repeats but may differ in a detail not shown here. Identical values can stand only once. Numbers after ± are expanded uncertainties.

Conditions: for surface tension liquid-gas: Drop volume; for viscosity / speed of sound / mass density / vapor or sublimation pressure: Liquid; for viscosity: Capillary tube (Ostwald / Ubbelohde) method; for speed of sound: Frequency=3 MHz, Single path-length method; for mass density: Vibrating tube method; for vapor or sublimation pressure: Ebulliometric method (Recirculating still)

CCc1cccs1 [2-ethylthiophene]
Conditions	surface tension liquid-gas [mN/m]	vapor or sublimation pressure [kPa]
278.15 K	32.36 ± 0.3	–
280.65 K	32.11 ± 0.3	–
283.15 K	31.8 ± 0.3	–
285.65 K	31.55 ± 0.3	–
288.15 K	31.24 ± 0.29	–
290.65 K	30.98 ± 0.29	–
292.41 K	–	0.8 ± 0.1
293.15 K	30.66 ± 0.29	–
293.45 K	–	0.84 ± 0.1
295.65 K	30.44 ± 0.29	–
296.81 K	–	1.03 ± 0.1
298.04 K	–	1.145 ± 0.1
298.15 K	30.1 ± 0.29	–
299.11 K	–	1.23 ± 0.1
300.65 K	29.86 ± 0.29	–
302.95 K	–	1.52 ± 0.1
303.15 K	29.54 ± 0.29	–
305.65 K	29.3 ± 0.29	–
308.07 K	–	2.005 ± 0.1
308.15 K	28.96 ± 0.29	–
310.65 K	28.73 ± 0.28	–
312.28 K	–	2.55 ± 0.1
313.15 K	28.41 ± 0.28	–

Conditions	mass density	speed of sound [m/s]	viscosity [mPa·s]
278.15 K, 100 kPa	1008.35 ± 0.54 kg/m3	1373.2 ± 1.1	0.9347 ± 0.0087
280.65 K, 100 kPa	1005.86 ± 0.54 kg/m3	1363.4 ± 1.1	0.905 ± 0.0085
283.15 K, 100 kPa	1003.44 ± 0.54 kg/m3 and 1003.37 ± 0.54 kg/m3	1354.2 ± 1.1	0.8766 ± 0.0083
283.15 K, 2000 kPa	1004.84 ± 0.54 kg/m3	–	–
283.15 K, 5000 kPa	1007 ± 0.54 kg/m3	–	–
283.15 K, 7000 kPa	1008.42 ± 0.55 kg/m3	–	–
283.15 K, 10000 kPa	1010.51 ± 0.55 kg/m3	–	–
283.15 K, 15000 kPa	1013.9 ± 0.55 kg/m3	–	–
283.15 K, 20000 kPa	1017.18 ± 0.55 kg/m3	–	–
283.15 K, 25000 kPa	1020.37 ± 0.56 kg/m3	–	–
283.15 K, 30000 kPa	1023.45 ± 0.56 kg/m3	–	–
283.15 K, 35000 kPa	1026.45 ± 0.56 kg/m3	–	–
283.15 K, 40000 kPa	1029.36 ± 0.57 kg/m3	–	–
283.15 K, 45000 kPa	1032.2 ± 0.57 kg/m3	–	–
283.15 K, 50000 kPa	1034.96 ± 0.58 kg/m3	–	–
283.15 K, 55000 kPa	1037.65 ± 0.59 kg/m3	–	–
283.15 K, 60000 kPa	1040.28 ± 0.6 kg/m3	–	–
283.15 K, 65000 kPa	1042.84 ± 0.6 kg/m3	–	–
285.65 K, 100 kPa	1000.87 ± 0.54 kg/m3	1344.7 ± 1.1	0.8498 ± 0.0082
288.15 K, 100 kPa	998.47 ± 0.54 kg/m3 and 998.38 ± 0.54 kg/m3	1334.1 ± 1.1	0.8244 ± 0.008
288.15 K, 2000 kPa	999.91 ± 0.54 kg/m3	–	–
288.15 K, 5000 kPa	1002.13 ± 0.54 kg/m3	–	–
288.15 K, 7000 kPa	1003.59 ± 0.54 kg/m3	–	–
288.15 K, 10000 kPa	1005.73 ± 0.54 kg/m3	–	–
288.15 K, 15000 kPa	1009.2 ± 0.55 kg/m3	–	–
288.15 K, 20000 kPa	1012.57 ± 0.55 kg/m3	–	–
288.15 K, 25000 kPa	1015.82 ± 0.55 kg/m3	–	–
288.15 K, 30000 kPa	1018.97 ± 0.56 kg/m3	–	–
288.15 K, 35000 kPa	1022.04 ± 0.56 kg/m3	–	–
288.15 K, 40000 kPa	1025.03 ± 0.56 kg/m3	–	–
288.15 K, 45000 kPa	1027.9 ± 0.57 kg/m3	–	–
288.15 K, 50000 kPa	1030.72 ± 0.58 kg/m3	–	–
288.15 K, 55000 kPa	1033.47 ± 0.58 kg/m3	–	–
288.15 K, 60000 kPa	1036.14 ± 0.59 kg/m3	–	–
288.15 K, 65000 kPa	1038.73 ± 0.6 kg/m3	–	–
290.65 K, 100 kPa	995.88 ± 0.54 kg/m3	1325 ± 1.1	0.8003 ± 0.0079
293.15 K, 100 kPa	993.45 ± 0.54 kg/m3 and 993.38 ± 0.54 kg/m3	1315.3 ± 1.1	0.7772 ± 0.0078
293.15 K, 2000 kPa	994.92 ± 0.54 kg/m3	–	–
293.15 K, 5000 kPa	997.2 ± 0.54 kg/m3	–	–
293.15 K, 7000 kPa	998.7 ± 0.54 kg/m3	–	–
293.15 K, 10000 kPa	1000.9 ± 0.54 kg/m3	–	–
293.15 K, 15000 kPa	1004.46 ± 0.54 kg/m3	–	–
293.15 K, 20000 kPa	1007.92 ± 0.55 kg/m3	–	–
293.15 K, 25000 kPa	1011.25 ± 0.55 kg/m3	–	–
293.15 K, 30000 kPa	1014.49 ± 0.55 kg/m3	–	–
293.15 K, 35000 kPa	1017.62 ± 0.56 kg/m3	–	–
293.15 K, 40000 kPa	1020.67 ± 0.56 kg/m3	–	–
293.15 K, 45000 kPa	1023.61 ± 0.57 kg/m3	–	–
293.15 K, 50000 kPa	1026.49 ± 0.57 kg/m3	–	–
293.15 K, 55000 kPa	1029.29 ± 0.58 kg/m3	–	–
293.15 K, 60000 kPa	1032.01 ± 0.58 kg/m3	–	–
293.15 K, 65000 kPa	1034.65 ± 0.59 kg/m3	–	–
295.65 K, 100 kPa	990.88 ± 0.54 kg/m3	1305.8 ± 1.1	0.7554 ± 0.0077
298.15 K, 100 kPa	988.39 ± 0.54 kg/m3 and 988.37 ± 0.54 kg/m3	1295.8 ± 1.1	0.7345 ± 0.0076
298.15 K, 2000 kPa	989.91 ± 0.54 kg/m3	–	–
298.15 K, 5000 kPa	992.26 ± 0.54 kg/m3	–	–
298.15 K, 7000 kPa	993.8 ± 0.54 kg/m3	–	–
298.15 K, 10000 kPa	996.05 ± 0.54 kg/m3	–	–
298.15 K, 15000 kPa	999.7 ± 0.54 kg/m3	–	–
298.15 K, 20000 kPa	1003.24 ± 0.54 kg/m3	–	–
298.15 K, 25000 kPa	1006.67 ± 0.55 kg/m3	–	–
298.15 K, 30000 kPa	1009.97 ± 0.55 kg/m3	–	–
298.15 K, 35000 kPa	1013.18 ± 0.55 kg/m3	–	–
298.15 K, 40000 kPa	1016.3 ± 0.56 kg/m3	–	–
298.15 K, 45000 kPa	1019.31 ± 0.56 kg/m3	–	–
298.15 K, 50000 kPa	1022.24 ± 0.57 kg/m3	–	–
298.15 K, 55000 kPa	1025.1 ± 0.57 kg/m3	–	–
298.15 K, 60000 kPa	1027.87 ± 0.58 kg/m3	–	–
298.15 K, 65000 kPa	1030.59 ± 0.58 kg/m3	–	–
300.65 K, 100 kPa	985.87 ± 0.54 kg/m3	1285.4 ± 1.1	0.7148 ± 0.0075
303.15 K, 100 kPa	983.42 ± 0.54 kg/m3 and 983.36 ± 0.54 kg/m3	1276.5 ± 1.1	0.696 ± 0.0074
303.15 K, 2000 kPa	984.97 ± 0.54 kg/m3	–	–
303.15 K, 5000 kPa	987.39 ± 0.54 kg/m3	–	–
303.15 K, 7000 kPa	988.98 ± 0.54 kg/m3	–	–
303.15 K, 10000 kPa	991.3 ± 0.54 kg/m3	–	–
303.15 K, 15000 kPa	995.04 ± 0.54 kg/m3	–	–
303.15 K, 20000 kPa	998.67 ± 0.54 kg/m3	–	–
303.15 K, 25000 kPa	1002.17 ± 0.54 kg/m3	–	–
303.15 K, 30000 kPa	1005.54 ± 0.55 kg/m3	–	–
303.15 K, 35000 kPa	1008.81 ± 0.55 kg/m3	–	–
303.15 K, 40000 kPa	1012 ± 0.55 kg/m3	–	–
303.15 K, 45000 kPa	1015.07 ± 0.56 kg/m3	–	–
303.15 K, 50000 kPa	1018.07 ± 0.56 kg/m3	–	–
303.15 K, 55000 kPa	1020.99 ± 0.57 kg/m3	–	–
303.15 K, 60000 kPa	1023.81 ± 0.57 kg/m3	–	–
303.15 K, 65000 kPa	1026.56 ± 0.58 kg/m3	–	–
305.65 K, 100 kPa	980.85 ± 0.54 kg/m3	1266.7 ± 1.1	0.678 ± 0.0073
308.15 K, 100 kPa	978.38 ± 0.54 kg/m3 and 978.33 ± 0.54 kg/m3	1256.8 ± 1.1	0.6606 ± 0.0072
308.15 K, 2000 kPa	979.99 ± 0.54 kg/m3	–	–
308.15 K, 5000 kPa	982.48 ± 0.54 kg/m3	–	–
308.15 K, 7000 kPa	984.11 ± 0.54 kg/m3	–	–
308.15 K, 10000 kPa	986.49 ± 0.54 kg/m3	–	–
308.15 K, 15000 kPa	990.33 ± 0.54 kg/m3	–	–
308.15 K, 20000 kPa	994.05 ± 0.54 kg/m3	–	–
308.15 K, 25000 kPa	997.63 ± 0.54 kg/m3	–	–
308.15 K, 30000 kPa	1001.09 ± 0.54 kg/m3	–	–
308.15 K, 35000 kPa	1004.45 ± 0.55 kg/m3	–	–
308.15 K, 40000 kPa	1007.68 ± 0.55 kg/m3	–	–
308.15 K, 45000 kPa	1010.84 ± 0.55 kg/m3	–	–
308.15 K, 50000 kPa	1013.88 ± 0.56 kg/m3	–	–
308.15 K, 55000 kPa	1016.86 ± 0.56 kg/m3	–	–
308.15 K, 60000 kPa	1019.74 ± 0.57 kg/m3	–	–
308.15 K, 65000 kPa	1022.56 ± 0.57 kg/m3	–	–
310.65 K, 100 kPa	975.82 ± 0.54 kg/m3	1246.5 ± 1.1	0.6442 ± 0.0071
313.15 K, 100 kPa	–	–	0.6282 ± 0.007
